Reference: patent US20130029962A1, “Substituted Heteroaromatic Pyrazole-Containing Carboxamide and Urea Compounds as Vanilloid Receptor Ligands” (Gruenenthal GmbH, priority 2011, published 2013)

What follows are molecules tested against T1, vanilloid receptor 1 (VR1/TRPV1 receptor) (Homo sapiens, UniProt Q8NER1) (assay: Functional testing on the vanilloid receptor 1 (VR1/TRPV1): FLIPR Ca2+ influx assay, displacement of capsaicin). Details: 5 μM compound; capsaicin (Cap); human being.
T1 construct: expressed in transfected cells; host or cells: CHO K1
T1 sequence (Q8NER1 whole entry): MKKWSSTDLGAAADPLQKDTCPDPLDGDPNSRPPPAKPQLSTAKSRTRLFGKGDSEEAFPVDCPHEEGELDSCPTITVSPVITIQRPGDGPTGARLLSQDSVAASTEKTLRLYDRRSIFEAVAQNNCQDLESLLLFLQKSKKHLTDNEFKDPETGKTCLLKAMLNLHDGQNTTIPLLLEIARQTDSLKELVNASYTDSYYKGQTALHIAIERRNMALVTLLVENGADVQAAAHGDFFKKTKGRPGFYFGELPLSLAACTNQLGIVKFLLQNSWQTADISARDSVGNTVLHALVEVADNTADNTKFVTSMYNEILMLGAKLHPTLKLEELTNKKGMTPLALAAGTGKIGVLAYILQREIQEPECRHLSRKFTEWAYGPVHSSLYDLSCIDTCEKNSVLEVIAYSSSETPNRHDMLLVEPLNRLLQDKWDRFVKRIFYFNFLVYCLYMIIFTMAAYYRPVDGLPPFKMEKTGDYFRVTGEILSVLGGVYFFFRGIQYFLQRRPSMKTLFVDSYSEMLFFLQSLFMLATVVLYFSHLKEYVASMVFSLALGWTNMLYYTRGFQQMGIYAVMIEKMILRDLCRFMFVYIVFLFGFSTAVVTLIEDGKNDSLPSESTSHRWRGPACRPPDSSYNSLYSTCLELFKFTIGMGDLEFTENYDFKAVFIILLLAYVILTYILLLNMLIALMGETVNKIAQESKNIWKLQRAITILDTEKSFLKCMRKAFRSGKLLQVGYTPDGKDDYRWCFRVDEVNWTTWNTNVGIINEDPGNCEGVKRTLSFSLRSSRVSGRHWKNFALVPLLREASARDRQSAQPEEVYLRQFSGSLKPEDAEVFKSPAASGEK
Type: cell-based, human being
Set-up: key to mode of action at VR1/TRPV1 (AG, pAG, NE), Cap: AG=agonist; NE=no effect; pAG=partial agonist
How it was run: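 Fluo-4 FLIPR Ca2+ influx in CHO K1 cells transfected with human VR1, measuring displacement of 100 nM capsaicin; rat VR1 agonism/antagonism also assessed in rat dorsal root ganglion neurons cultured 2–3 days at 37° C with 25 ng/mL NGF, then loaded with 2 μM Fluo-4.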

inhibition (as a percentage) at the concentration after @, Cap | Compound
60%@5 μM | CC(C(=O)NCc1cc(C(F)(F)F)nn1-c1cccc(Cl)c1)c1ccc(C(=O)Nc2ccccc2)nc1 (centres unmarked) [Example 57]

Same assay, conditions: 5 μM compound; capsaicin (Cap); human being; read-out: inhibition (as a percentage) at the concentration after @, Cap

inhibition at 5 µM | Compound
24% | CC(C(=O)NCc1cc(C(F)(F)F)nn1-c1cccc(Cl)c1)c1ccc(C(=O)Nc2ccc(C(F)(F)F)cc2)nc1 (centres unmarked) [Example 59, 5-(1-((1-(3-chlorophenyl)-3-(trifluoromethyl)-1H-pyrazol-5-yl)methylamino)-1-oxopropan-2-yl)-N-(4-(trifluoromethyl)phenyl)picolinamide]
45% | O=C(NCc1cc(C(F)(F)F)nn1-c1cccc(Cl)c1)Nc1ccc(CCO)nc1 [Example 52, 1-((1-(3-chlorophenyl)-3-(trifluoromethyl)-1H-pyrazol-5-yl)methyl)-3-(6-(2-hydroxyethyl)pyridin-3-yl)urea]
31% | COCCN(C)c1ccc(NC(=O)NCc2cc(C(F)(F)F)nn2-c2cccc(Cl)c2)cn1 [Example 89, 1-((1-(3-chlorophenyl)-3-(trifluoromethyl)-1H-pyrazol-5-yl)methyl)-3-(6-((2-methoxyethyl)(methyl)amino)pyridin-3-yl)urea]
89% | CC(C)(C)c1cc(CNC(=O)Cc2cccnc2)n(-c2cccc(Cl)c2)n1 [Example 6, N-((3-tert-butyl-1-(3-chlorophenyl)-1H-pyrazol-5-yl)methyl)-2-(pyridin-3-yl)acetamide]
45% | COCCOc1ccc(NC(=O)NCc2cc(C(F)(F)F)nn2-c2cccc(Cl)c2)cn1 [Example 132, 1-((1-(3-chlorophenyl)-3-(trifluoromethyl)-1H-pyrazol-5-yl)methyl)-3-(6-(2-methoxyethoxy)pyridin-3-yl)urea]
73% | COCCNc1ccc(NC(=O)NCc2cc(C(C)(C)C)nn2-c2cccc(Cl)c2)cn1 [Example 68, 1-((3-tert-butyl-1-(3-chlorophenyl)-1H-pyrazol-5-yl)methyl)-3-(6-(2-methoxyethylamino)pyridin-3-yl)urea]
90% | CC(C)(C)c1cc(CNC(=O)Cc2ccncc2)n(-c2cccc(Cl)c2)n1 [Example 10, N-((3-tert-butyl-1-(3-chlorophenyl)-1H-pyrazol-5-yl)methyl)-2-(pyridin-4-yl)acetamide]

Same assay, conditions: capsaicin (Cap) as stimulus; Ki from IC50 by Cheng-Prusoff; read-out: (f) Ki (human being) [nM] Cap

Ki | Compound
109 nM | CC(C)(C)c1cc(CNC(=O)Nc2ccc(CO)cn2)n(-c2cccc(Cl)c2)n1 [Example 139, 1-((3-tert-butyl-1-(3-chlorophenyl)-1H-pyrazol-5-yl)methyl)-3-(5-(hydroxymethyl)pyridin-2-yl)urea]
35 nM | Cc1cccc(-n2nc(C(F)(F)F)cc2CNC(=O)Nc2ccc(N3CC(O)C3)nc2)c1 [Example 114, 1-(6-(3-hydroxyazetidin-1-yl)pyridin-3-yl)-3-((1-m-tolyl-3-(trifluoromethyl)-1H-pyrazol-5-yl)methyl)urea]
61 nM | CC(C)(C)c1cc(CNC(=O)Nc2ccc(N3CC[C@@H](O)C3)nc2)n(-c2cccc(Cl)c2)n1 [Example 126, (R)-1-((3-tert-butyl-1-(3-chlorophenyl)-1H-pyrazol-5-yl)methyl)-3-(6-(3-hydroxypyrrolidin-1-yl)pyridin-3-yl)urea]
47 nM | Cc1ccc(NC(=O)NCc2cc(C(F)(F)F)nn2-c2cccc(Cl)c2)cn1 [Example 136, 1-((1-(3-chlorophenyl)-3-(trifluoromethyl)-1H-pyrazol-5-yl)methyl)-3-(6-methylpyridin-3-yl)urea]
88 nM | O=C(NCc1cc(C(F)(F)F)nn1-c1cccc(Cl)c1)Nc1ccc(OCCO)nc1 [Example 133, 1-((1-(3-chlorophenyl)-3-(trifluoromethyl)-1H-pyrazol-5-yl)methyl)-3-(6-(2-hydroxyethoxy)pyridin-3-yl)urea]
64 nM | O=C(NCc1cc(C(F)(F)F)nn1-c1cccc(Cl)c1)Nc1ccc(N2CC[C@H](O)C2)nc1 [Example 125, (S)-1-((1-(3-chlorophenyl)-3-(trifluoromethyl)-1H-pyrazol-5-yl)methyl)-3-(6-(3-hydroxypyrrolidin-1-yl)pyridin-3-yl)urea]
35 nM | O=C(NCc1cc(C(F)(F)F)nn1-c1cc(F)cc(F)c1)Nc1ccc(NCCO)nc1 [Example 155, 1-((1-(3,5-difluorophenyl)-3-(trifluoromethyl)-1H-pyrazol-5-yl)methyl)-3-(6-(2-hydroxyethylamino)pyridin-3-yl)urea]
80 nM | O=C(NCc1cc(C(F)(F)F)nn1-c1ccc(F)c(Cl)c1)Nc1ccc(N2CC(O)C2)nc1 [Example 113, 1-((1-(3-chloro-4-fluorophenyl)-3-(trifluoromethyl)-1H-pyrazol-5-yl)methyl)-3-(6-(3-hydroxyazetidin-1-yl)pyridin-3-yl)urea]
47 nM | O=C(NCc1cc(C(F)(F)F)nn1-c1cccc(Cl)c1)Nc1ccc(N2CCCC2)nc1 [Example 121, 1-((1-(3-chlorophenyl)-3-(trifluoromethyl)-1H-pyrazol-5-yl)methyl)-3-(6-(pyrrolidin-1-yl)pyridin-3-yl)urea]
18 nM | COCCNc1ccc(C(C)C(=O)NCc2cc(C(F)(F)F)nn2-c2cccc(Cl)c2)cn1 (centres unmarked) [Example 147, N-((1-(3-chlorophenyl)-3-(trifluoromethyl)-1H-pyrazol-5-yl)methyl)-2-(6-(2-methoxyethylamino)pyridin-3-yl)propanamide]
49 nM | Cc1cccc(-n2nc(C(F)(F)F)cc2CNC(=O)C(C)c2ccc(CCO)nc2)c1 (centres unmarked) [Example 151, 2-(6-(2-hydroxyethyl)pyridin-3-yl)-N-((1-m-tolyl-3-(trifluoromethyl)-1H-pyrazol-5-yl)methyl)propanamide]

The remaining lines, values behind:

Compound | Ki
CC(C(=O)NCc1cc(C(C)(C)C)nn1-c1cccc(Cl)c1)c1cnc(C(=O)Nc2ccc(F)cc2)nc1 (centres unmarked) [Example 66, 5-(1-((3-tert-butyl-1-(3-chlorophenyl)-1H-pyrazol-5-yl)methylamino)-1-oxopropan-2-yl)-N-(4-fluorophenyl)pyrimidine-2-carboxamide] | 3 nM
CC(C)(C)c1cc(CNC(=O)Nc2ccc(C(N)=O)nc2)n(-c2cccc(Cl)c2)n1 [Example 25, 5-(3-((3-tert-butyl-1-(3-chlorophenyl)-1H-pyrazol-5-yl)methyl)ureido)picolinamide] | 31 nM
CN(CCO)c1ccc(NC(=O)NCc2cc(C(C)(C)C)nn2-c2cccc(Cl)c2)cn1 [Example 87, 1-((3-tert-butyl-1-(3-chlorophenyl)-1H-pyrazol-5-yl)methyl)-3-(6-((2-hydroxyethyl)(methyl)amino)pyridin-3-yl)urea] | 17 nM
O=C(NCc1cc(C(F)(F)F)nn1-c1cccc(F)c1)Nc1ccc(N2CC(O)C2)nc1 [Example 112, 1-((1-(3-fluorophenyl)-3-(trifluoromethyl)-1H-pyrazol-5-yl)methyl)-3-(6-(3-hydroxyazetidin-1-yl)pyridin-3-yl)urea] | 48 nM
CC(C(=O)NCc1cc(C(F)(F)F)nn1-c1cccc(Cl)c1)c1ccc(NS(C)(=O)=O)nc1 (centres unmarked) [Example 99, N-((1-(3-chlorophenyl)-3-(trifluoromethyl)-1H-pyrazol-5-yl)methyl)-2-(6-(methylsulfonamido)pyridin-3-yl)propanamide] | 11 nM
COCCNc1ccc(NC(=O)NCc2cc(C(F)(F)F)nn2-c2cccc(Cl)c2)cn1 [Example 69, 1-((1-(3-chlorophenyl)-3-(trifluoromethyl)-1H-pyrazol-5-yl)methyl)-3-(6-(2-methoxyethylamino)pyridin-3-yl)urea] | 51 nM
O=C(NCc1cc(C(F)(F)F)nn1-c1ccc(F)c(F)c1)Nc1ccc(NCCO)nc1 [Example 79, 1-((1-(3,4-difluorophenyl)-3-(trifluoromethyl)-1H-pyrazol-5-yl)methyl)-3-(6-(2-hydroxyethylamino)pyridin-3-yl)urea] | 26 nM
O=C(NCc1cc(C(F)(F)F)nn1-c1cccc(Cl)c1)Nc1cnc(CO)c(F)c1 [Example 50, 1-((1-(3-chlorophenyl)-3-(trifluoromethyl)-1H-pyrazol-5-yl)methyl)-3-(5-fluoro-6-(hydroxymethyl)pyridin-3-yl)urea] | 24 nM
CC(C(=O)NCc1cc(C(F)(F)F)nn1-c1cccc(Cl)c1)c1cnc(C(=O)Nc2ccc(C(F)(F)F)cc2)nc1 (centres unmarked) [Example 64, 5-(1-((1-(3-chlorophenyl)-3-(trifluoromethyl)-1H-pyrazol-5-yl)methylamino)-1-oxopropan-2-yl)-N-(4-(trifluoromethyl)phenyl)pyrimidine-2-carboxamide] | 61 nM
CC(C(=O)NCc1cc(C(F)(F)F)nn1-c1cccc(F)c1)c1ccc(NS(C)(=O)=O)nc1 (centres unmarked) [Example 100, N-((1-(3-fluorophenyl)-3-(trifluoromethyl)-1H-pyrazol-5-yl)methyl)-2-(6-(methylsulfonamido)pyridin-3-yl)propanamide] | 37 nM
CC(C(=O)NCc1cc(C(F)(F)F)nn1-c1cccc(Cl)c1)c1ccc(NC(=O)c2ccccc2)nc1 (centres unmarked) [Example 92, N-(5-(1-((1-(3-chlorophenyl)-3-(trifluoromethyl)-1H-pyrazol-5-yl)methylamino)-1-oxopropan-2-yl)pyridin-2-yl)benzamide] | 26 nM
CC(C(=O)NCc1cc(C(F)(F)F)nn1-c1cccc(Cl)c1)c1ccc(CO)nc1 (centres unmarked) [Example 30, N-((1-(3-chlorophenyl)-3-(trifluoromethyl)-1H-pyrazol-5-yl)methyl)-2-(6-(hydroxymethyl)pyridin-3-yl)propanamide] | 1 nM
CN(C)c1ncc(NC(=O)NCc2cc(C(F)(F)F)nn2-c2cccc(Cl)c2)cc1C(F)(F)F [Example 106, 1-((1-(3-chlorophenyl)-3-(trifluoromethyl)-1H-pyrazol-5-yl)methyl)-3-(6-(dimethylamino)-5-(trifluoromethyl)pyridin-3-yl)urea] | 25 nM

Same assay, conditions: capsaicin (Cap); human being

mode of action at VR1/TRPV1 (AG, pAG, NE), Cap | Compound
AG | CC(C)(C)c1cc(CNC(=O)Cc2cccnc2)n(-c2cccc(Cl)c2)n1 [Example 6, N-((3-tert-butyl-1-(3-chlorophenyl)-1H-pyrazol-5-yl)methyl)-2-(pyridin-3-yl)acetamide]
AG | COCCNc1ccc(NC(=O)NCc2cc(C(C)(C)C)nn2-c2cccc(Cl)c2)cn1 [Example 68, 1-((3-tert-butyl-1-(3-chlorophenyl)-1H-pyrazol-5-yl)methyl)-3-(6-(2-methoxyethylamino)pyridin-3-yl)urea]
AG | CC(C)(C)c1cc(CNC(=O)Cc2ccncc2)n(-c2cccc(Cl)c2)n1 [Example 10, N-((3-tert-butyl-1-(3-chlorophenyl)-1H-pyrazol-5-yl)methyl)-2-(pyridin-4-yl)acetamide]
